Laboratory results as given in patent US10150764B2, “Substituted benzene compounds” (Epizyme, Inc., priority 2013, dated 2018).

Key:
[1] = target: wild-type EZH2 (PRC2 enzyme) (Homo sapiens (Human), UniProt Q15910); experiment: PRC2 enzyme assay on peptide substrate, wild-type EZH2 (H3K27me0 peptide, 3H-SAM Flashplate); type: biochemical; settings: wild-type PRC2 4 nM, read-out: WT EZH2 IC50
[2] = target: EZH2 Y641F mutant (PRC2 enzyme) (Homo sapiens (Human), UniProt Q15910, Y641F); experiment: PRC2 enzyme assay on peptide substrate, EZH2 Y641F mutant (H3K27me2 peptide, 3H-SAM Flashplate); type: biochemical; settings: Y641F mutant PRC2 4 nM
EZH2 Y641F mutant (PRC2 enzyme), sequence (Q15910 whole entry Y641F): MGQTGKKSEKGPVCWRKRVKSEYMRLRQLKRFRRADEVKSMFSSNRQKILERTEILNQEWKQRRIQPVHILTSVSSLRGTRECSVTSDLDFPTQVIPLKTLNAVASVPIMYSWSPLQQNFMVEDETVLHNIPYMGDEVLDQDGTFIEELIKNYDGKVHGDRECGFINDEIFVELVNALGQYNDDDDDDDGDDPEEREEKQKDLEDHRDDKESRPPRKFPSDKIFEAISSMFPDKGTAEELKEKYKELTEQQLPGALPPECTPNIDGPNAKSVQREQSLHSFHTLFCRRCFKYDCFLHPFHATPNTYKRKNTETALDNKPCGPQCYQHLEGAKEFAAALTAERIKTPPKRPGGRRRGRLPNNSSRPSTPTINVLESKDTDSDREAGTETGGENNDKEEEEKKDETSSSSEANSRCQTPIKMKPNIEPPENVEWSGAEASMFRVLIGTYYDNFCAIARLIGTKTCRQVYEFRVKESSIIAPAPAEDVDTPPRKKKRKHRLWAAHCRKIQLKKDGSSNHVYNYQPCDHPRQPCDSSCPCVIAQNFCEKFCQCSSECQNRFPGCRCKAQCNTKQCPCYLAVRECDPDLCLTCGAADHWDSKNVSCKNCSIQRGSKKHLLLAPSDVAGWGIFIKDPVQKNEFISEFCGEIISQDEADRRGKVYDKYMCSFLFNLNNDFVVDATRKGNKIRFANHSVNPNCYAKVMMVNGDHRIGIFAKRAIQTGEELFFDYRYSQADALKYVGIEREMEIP
EZH2 Y641F mutant (PRC2 enzyme), sequence (O75530 whole entry partner): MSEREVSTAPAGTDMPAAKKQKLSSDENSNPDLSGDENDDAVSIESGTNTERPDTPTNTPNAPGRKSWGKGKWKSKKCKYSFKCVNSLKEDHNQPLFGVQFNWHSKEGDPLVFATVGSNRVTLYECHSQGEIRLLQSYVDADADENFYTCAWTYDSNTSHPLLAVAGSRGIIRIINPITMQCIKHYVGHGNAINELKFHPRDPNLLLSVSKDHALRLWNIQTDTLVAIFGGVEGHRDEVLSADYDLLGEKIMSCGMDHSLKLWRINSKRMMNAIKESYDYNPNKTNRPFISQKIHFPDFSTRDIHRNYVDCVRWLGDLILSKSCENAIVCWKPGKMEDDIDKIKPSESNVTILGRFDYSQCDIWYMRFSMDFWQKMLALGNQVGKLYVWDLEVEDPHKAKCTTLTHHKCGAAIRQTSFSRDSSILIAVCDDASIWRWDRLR
EZH2 Y641F mutant (PRC2 enzyme), sequence (Q15022 whole entry partner): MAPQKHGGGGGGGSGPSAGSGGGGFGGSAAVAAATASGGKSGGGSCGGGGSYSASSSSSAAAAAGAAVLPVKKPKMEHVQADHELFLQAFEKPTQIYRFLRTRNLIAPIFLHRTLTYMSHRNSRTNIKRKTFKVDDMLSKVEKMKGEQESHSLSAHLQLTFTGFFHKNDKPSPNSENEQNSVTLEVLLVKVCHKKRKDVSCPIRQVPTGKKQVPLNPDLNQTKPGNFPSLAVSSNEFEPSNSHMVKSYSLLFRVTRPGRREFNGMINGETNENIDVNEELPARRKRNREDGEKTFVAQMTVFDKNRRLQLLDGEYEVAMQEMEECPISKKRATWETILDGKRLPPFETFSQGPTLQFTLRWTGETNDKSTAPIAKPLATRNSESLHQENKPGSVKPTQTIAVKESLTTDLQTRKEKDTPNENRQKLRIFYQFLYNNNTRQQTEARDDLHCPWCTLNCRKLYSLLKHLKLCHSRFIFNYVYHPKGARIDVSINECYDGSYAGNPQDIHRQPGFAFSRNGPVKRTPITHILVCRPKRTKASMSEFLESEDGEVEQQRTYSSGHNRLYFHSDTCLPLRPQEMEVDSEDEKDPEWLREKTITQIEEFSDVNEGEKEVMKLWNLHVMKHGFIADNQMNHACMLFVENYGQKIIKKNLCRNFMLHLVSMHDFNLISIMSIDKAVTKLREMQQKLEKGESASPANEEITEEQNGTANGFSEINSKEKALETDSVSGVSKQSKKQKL
EZH2 Y641F mutant (PRC2 enzyme), sequence (Q09028 whole entry partner): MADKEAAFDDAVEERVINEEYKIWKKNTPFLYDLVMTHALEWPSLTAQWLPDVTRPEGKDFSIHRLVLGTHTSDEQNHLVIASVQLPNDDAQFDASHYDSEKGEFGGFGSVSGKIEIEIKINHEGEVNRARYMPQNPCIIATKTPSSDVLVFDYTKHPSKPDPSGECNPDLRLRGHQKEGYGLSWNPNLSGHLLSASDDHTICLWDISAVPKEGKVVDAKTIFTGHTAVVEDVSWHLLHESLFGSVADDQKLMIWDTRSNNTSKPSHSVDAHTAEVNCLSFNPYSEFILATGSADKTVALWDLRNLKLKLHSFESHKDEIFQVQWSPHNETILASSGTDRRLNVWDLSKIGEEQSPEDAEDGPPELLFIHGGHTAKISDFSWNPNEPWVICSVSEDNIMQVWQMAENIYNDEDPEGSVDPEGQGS

wild-type EZH2 (PRC2 enzyme), sequence (Q15910 whole entry): as the sequence (Q15910 whole entry Y641F) above, with F641Y counted along it
wild-type EZH2 (PRC2 enzyme), sequence (O75530 whole entry partner): as the sequence (O75530 whole entry partner) above
wild-type EZH2 (PRC2 enzyme), sequence (Q15022 whole entry partner): as the sequence (Q15022 whole entry partner) above
wild-type EZH2 (PRC2 enzyme), sequence (Q09028 whole entry partner): as the sequence (Q09028 whole entry partner) above

| IC50 [1] [nM] | IC50 [2] [nM] | Structure (SMILES) |
| --- | --- | --- |
| 17500 | 4480 | CCn1nc(OC)c(CNC(=O)c2cc(Cl)cc(N(CC)[C@H]3CC[C@H](N(C)CCOC)CC3)c2C)c1C [Compound 64, 5-chloro-3-(ethyl ((trans)-4-((2-methoxyethyl)-(methyl)-amino)-cyclohexyl)amino)-N-((1-ethyl-3-methoxy-5-methyl-1H-pyrazol-4-yl)methyl)-2-methylbenzamide] |
| 1140 | 442 | CCn1[nH]c(=O)c(CNC(=O)c2cc(Cl)cc(N(CC)[C@H]3CC[C@H](N(C)CCOC)CC3)c2C)c1C [Compound 65, 5-chloro-3-(ethyl((trans)-4-((2-methoxyethyl)-(methyl)-amino)-cyclohexyl)-amino)-N-((1-ethyl-5-methyl-3-oxo-2,3-dihydro-1H-pyrazol-4-yl)methyl)-2-methylbenzamide] |
| 10200 | 2340 | CCN(c1cc(Cl)cc(C(=O)NCc2c(OC)nn(C)c2C)c1C)[C@H]1CC[C@H](N(C)Cc2cccnc2)CC1 [Compound 66, 5-chloro-3-(ethyl((trans)-4-(methyl(pyridin-3-ylmethyl)amino)cyclohexyl)amino)-N-((3-methoxy-1,5-dimethyl-1H-pyrazol-4-yl)methyl)-2-methylbenzamide] |
| 319 | 60 | CCN(c1cc(Cl)cc(C(=O)NCc2c(C)n(C)[nH]c2=O)c1C)[C@H]1CC[C@H](N(C)Cc2cccnc2)CC1 [Compound 67, 5-chloro-N-((1,5-dimethyl-3-oxo-2,3-dihydro-1H-pyrazol-4-yl)methyl)-3-(ethyl((trans)-4-(methyl(pyridin-3-ylmethyl)amino)cyclohexyl)amino)-2-methylbenzamide] |
| 136 | 31 | CCN(c1cc(Cl)cc(C(=O)NCc2c(C)n(C)[nH]c2=O)c1C)[C@H]1CC[C@H](N(C)Cc2cccc(OCCOC)c2)CC1 [Compound 69, 5-chloro-N-((1,5-dimethyl-3-oxo-2,3-dihydro-1H-pyrazol-4-yl)methyl)-3-(ethyl((trans)-4-((3-(2-methoxyethoxy)benzyl)(methyl)amino)cyclohexyl)amino)-2-methylbenzamide] |

The next lines start with the molecule.

| Structure (SMILES) | IC50 [1] [nM] | IC50 [2] [nM] |
| --- | --- | --- |
| CCCCc1[nH]n(C)c(=O)c1CNC(=O)c1cc(Cl)cc(N(CC)[C@H]2CC[C@H](N(C)C)CC2)c1C [Compound 40, N-((5-butyl-2-methyl-3-oxo-2,3-dihydro-1H-pyrazol-4-yl)methyl)-5-chloro-3-(((trans)-4-(dimethylamino)cyclohexyl)(ethyl)amino)-2-methylbenzamide] | 689 | 166 |
| CCN(c1cc(Cl)cc(C(=O)NCc2c(OC)nn3c(C)cc(C)nc23)c1C)[C@H]1CC[C@H](N(C)C)CC1 [Compound 48, 5-chloro-3-(((trans)-4-(dimethylamino)cyclohexyl)(ethyl)amino)-N-((2-methoxy-5,7-dimethylpyrazolo[1,5-a]pyrimidin-3-yl)methyl)-2-methylbenzamide] | > 50000 | > 50000 |
| CCN(c1cc(Cl)cc(C(=O)NCc2c(=O)[nH]n3c(C)cc(C)nc23)c1C)[C@H]1CC[C@H](N(C)C)CC1 [Compound 49, 5-chloro-N-((5,7-dimethyl-2-oxo-1,2-dihydropyrazolo[1,5-a]pyrimidin-3-yl)methyl)-3-(((trans)-4-(dimethylamino)cyclohexyl)(ethyl)amino)-2-methylbenzamide] | 10400 | 5160 |
| CCN(c1cc(Cl)cc(C(=O)NCc2c(OC)nn3cccnc23)c1C)[C@H]1CC[C@H](N(C)C)CC1 [Compound 50, 5-chloro-3-(((trans)-4(dimethylamino)cyclohexyl)(ethyl)amino)-N-((2-methoxypyrazolo[1,5-a]pyrimidin-3-yl)methyl)-2-methylbenzamide] | 27600 | 2710 |
| CCN(c1cc(-c2ccc(CN3CCOCC3)cc2)cc(C(=O)NCc2c(OC)nn(C)c2C)c1C)[C@H]1CC[C@H](N(C)C)CC1 [Compound 53, 5-(((trans)-4-(dimethylamino)cyclohexyl) (ethyl)amino)-N-((3-methoxy-1,5-dimethyl-1H-pyrazol-4-yl)methyl)-4-methyl-4′-(morpholinomethyl)-[1,1′-biphenyl]-3-carboxamide] | 2180 | 625 |
